Assay [1] addresses T1, recombinant human 72 kD type IV collagenase (Oncologix), APMA activated (Homo sapiens, UniProt P08253).
T1 construct: purchased Oncologix
T1 sequence (P08253 110-660): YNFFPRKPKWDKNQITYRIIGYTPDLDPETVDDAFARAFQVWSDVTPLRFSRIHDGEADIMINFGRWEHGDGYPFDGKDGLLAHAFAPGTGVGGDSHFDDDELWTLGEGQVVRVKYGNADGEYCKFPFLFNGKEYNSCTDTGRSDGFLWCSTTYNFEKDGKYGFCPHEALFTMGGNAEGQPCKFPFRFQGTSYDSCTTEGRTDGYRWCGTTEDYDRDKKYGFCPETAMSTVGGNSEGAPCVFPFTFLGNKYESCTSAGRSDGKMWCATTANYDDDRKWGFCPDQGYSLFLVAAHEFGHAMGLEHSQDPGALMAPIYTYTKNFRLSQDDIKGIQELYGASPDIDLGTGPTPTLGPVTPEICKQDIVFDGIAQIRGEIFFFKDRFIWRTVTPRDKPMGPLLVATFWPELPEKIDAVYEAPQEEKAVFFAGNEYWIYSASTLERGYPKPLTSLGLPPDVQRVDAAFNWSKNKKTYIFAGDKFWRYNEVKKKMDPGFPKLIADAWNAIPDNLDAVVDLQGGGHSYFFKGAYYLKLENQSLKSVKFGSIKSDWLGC
The assay is described as follows: gelatinase assay, Example 11. The format is biochemical. How it is done:
NET-660 Collagen (Rat Type I), N-[Propionate-2-3-^3 H] Propionylated (NEN Dupont) with a specific activity of 0.4 mCi/mg, rat type I Collagen (Sigma), P-aminophenylmercuric acetate, APMA (Sigma), recombinant human 72 kD type IV collagenase (Oncologix) with a specific activity of at least 1000 μg collagen digested/hour/μg enzyme, collagenase buffer (50 mM Tris-HCl, 5 mM CaCl2, 200 mM NaCl, 0.02% Brij-35, pH 7.6), bovine serum albumin (BSA), 250 mM EDTA, and 10% TCA+0.7% tannic acid. The substrate is prepared by mixing the ^3 H collagen with the cold collagen at a 2/3 ratio and diluting in the collagenase buffer. The final assay concentration of the ^3 H collagen is 1% or between 20,000 to 40,000 cpm. Inhibitors are prepared just prior to use by dissolving in DMSO (final assay concentration<1%) or collagenase buffer.
The 72 kD collagenase enzyme is activated with 0.5 mM APMA for 30 min. at 37° C. and 10 ng of enzyme per assay is used. Inhibitors are preincubated with activated enzyme for 2 hours at 37° C. in collagenase buffer. Substrate is then added to enzyme inhibitor mix and the assay is run for 20 min at 37° C. […] Undigested substrate is precipitated with the TCA/tannic acid solution and soluble counts are determined in a scintillation counter.

In assay [2] the test system is HT-1080 cells (human fibrosarcoma). Kind of assay: in vitro invasion assay through matrigel (Transwell). The format is cell-based. How it is done: Razoxane, various bis(hydroxylated)(2,6-dioxopiperazine)s, and various hydrophobic analogs were tested in an in vitro assay for inhibition of tumor cell penetration of a reconstituted basement membrane, matrigel, isolated from the Englegbreth-Holm-Swarm (EHS) tumor (disclosed in Kleinman et al., Biochem. (1982), 24, 6188-6193) first described by Albini et al, Cancer Res. (1987) 47, 3234-3245. An 8 μm pore filter coated with matrigel separates a lower compartment containing a chemoattractant and an upper compartment containing the cells and test compound. In particular, the following compounds were tested: razoxane, (1α, 2α, 4α, 5α)-4,4'-(4,5-dihydroxy-1,2-cyclohexanediyl)bis(2,6-piperazinedione); (1α, 2α, 4β, 5β)-4,4'-(4,5-dihydroxy-1,2-cyclohexanediyl)bis(2,6-piperazinedione);(1β, 2α,4α,5α)-4,4'-(4,5-dihydroxy-1,2-cyclohexanediyl)bis(2,6-piperazinedione); (1β, 2α, 4α,5β)-4,4'-(4,5-dihydroxy-1,2-cyclohexanediyl)bis(2,6piperazinedione); (1α, 2β, 4α,5β)-4,4'-(4,5-dihydroxy-1,2cyclohexanediyl)bis(2,6-piperazinedione); N,N'-cyclohexane-1,2-diylbis[N(2-ethoxy-2-oxoethyl)]glycine; N,N'-4-cyclohexene-1,2-diylbis[N-(2-ethoxy-2-oxoethyl)-glycine ester; (3aα, 5β, 6β, 7aα)-4,4'-(hexahydro-2,2-dimethyl1,3-benzodioxole-5,6-diyl)bis(2,6-piperazinedione); (3aα, 5α, 6α, 7aα)-4,4'-(hexahydro-2,2-dimethyl-1,3-benzodioxole-5,6-diyl)bis(2,6- piperazinedione); (3aα, 5α, 6β, 7aα)-4,4'-(hexahydro-2,2-dimethyl-1,3-benzodioxole-5,6-diyl)bis-2,6- piperazinedione; (3aα, 5β, 6α, 7aβ)-4,4'-(hexahydro-2,2dimethyl-1,3-benzodioxole-5,6-diyl)bis(2,6-piperazinedione); and (3aα, 5α, 6β, 7aβ)-4,4'-(hexahydro-2,2-dimethyl-1,3-benzodioxole-5,6-diyl) bis(2,6piperazinedione). Metastatic cells are able to degrade the basement membrane protein barrier and migrate through the pores of the filter whereas non-metastatic cells remain on the upper surface. The cells that pass to the under side of the filter are then counted under a microscope. […] Variations of this assay have been used to correlate this in vitro invasion with metastatic potential in vivo (Albini et al. (Id.); Hendrix et al. Cancer Letters (1987); 38, 127-247; Repesh L. A., Invasion Metastasis (1989) 9, 192-208 to select for more highly invasive cells (Teranova et al., Proc. Nat. Acad. Sci., (1986), 83, 465, 464; Tullberg et al., Invasion Metastasis, (1989), 9, 13-26; Sefer et al., Biotechniques, (1990), 9, 324-331), and to test compounds for inhibition (Nakajima et al., Cancer Res. (1989), 49, 1698-1756).
This method has been improved to increase the number of assays which may be performed and analyzed per day. In particular, such improvement comprises the use of disposable Transwells (Costar) units described by Repesh et al., Invasion Metastasis, (1989), 9, 192-208, which consist of an 8 μm pore filter attached to an insert that fits in a 24 well culture plate. Matrigel concentration is titrated from zero to complete inhibition of motility of each invasive cell line used in the assay and for each batch of matrigel. The matrigel concentration which yields 50% or greater inhibition of motility in a 6 hr assay (usually from 15 to 50 μg of protein per filter) is chosen for determination of invasion. Motility of cells through the 8 μm filters is not by passive diffusion since the pore size is smaller than the cells, and is determined in the same chamber in the absence of matrigel. Motility is stimulated two-fold by the presence of fibroblast conditioned medium (3T3 cells) as a chemoattractant (data not shown). The cell lines used are HT-1080, a human fibrosarcoma, and MDA-MB-231, a human breast carcinoma (both available from the American Type Tissue Culture). These cell lines express both the 72 kD and the 92 kD collagenase type IV as determined by zymography (data not shown).
For inhibition studies, 5×10^5 cells are plated in 200 μl of DMEM+0.1% BSA+the inhibitor (or appropriate solvent control) into the upper chamber of the Transwell. […]

Data on two compounds can be found in US5866570A, “Treatment of vascular leakage and related syndrome such as septic shock by administration of metalloproteinase inhibitors” (Wisconsin Alumni Research Foundation, priority 1994, dated 1999).

Broadly, the IC50 is the concentration at which inhibition is half-maximal. A word on the inhibition: it is the drop in the measured response relative to a control, in per cent.

Molecules are shown by their SMILES. Read-outs that look alike come from different tables or passages of the source.

Consider `CC1(C)O[C@H]2C[C@H](N3CC(=O)NC(=O)C3)[C@@H](N3CC(=O)NC(=O)C3)C[C@@H]2O1` (relative stereo) [Compound 80, (3aα, 5β, 6α, 7aβ)-4,4'-(hexahydro-2,2-dimethyl-1,3-benzodioxole-5,6-diyl)bis(2,6-piperazinedione)], for which, in assay [1] (10 ng enzyme, 2 hours preincubation at 37° C., 20 min assay, 3H collagen substrate, read-out: IC50 for inhibition of the 72 kD collagenase type IV), the IC50 came to 1.8 µM. The inhibition at 125 µM in assay [2] (Homo sapiens, HT-1080, at 125 μM, 6 hour assay, read-out: maximum inhibition of invasion) came out at 62%. Moreover, the inhibition of invasion result in assay [2] (preliminary screen) is recorded as “inhibit invasion”. Further, the “effect on cell motility” value in assay [2] (preliminary screen, no matrigel) is listed as “without inhibiting cell motility”.

With `CC(CN1CC(=O)NC(=O)C1)N1CC(=O)NC(=O)C1` (stereo not drawn) [razoxane], the half-maximal inhibitory concentration (IC50) in assay [1] stood at 44 µM. Further, in assay [2] (from 250 μM to 1 mM), the “consistent inhibition of invasion without effect on motility” value was “could not be demonstrated”.
